Test [1] is described as follows: DPPH· scavenging.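 Further: colourimetric DPPH radical scavenging in 96-well plates, absorbance read-out, percent inhibition relative to ethanol control absorbance, IC50 derived graphically from dose-inhibition curves.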 The following applies: mean ± SD, n = 3. The format is biochemical.
Test [2] in a line: ABTS·+ decolourisation capacity. The class given is biochemical. The conditions noted are these: mean ± SD, n = 3. In short, it runs like this:
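ABTS·+ working solution in 0.2 M phosphate buffer, pH 7.4, was adjusted to A729 0.8 ± 0.05, and 100 μl was mixed with 200 μl sample; absorbance was read at 729 nm after 10 min, in triplicate. Inhibition was taken relative to a phosphate-buffer control, and IC50 was obtained graphically from dose-inhibition curves.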

Test [3] in a line: FRAP total antioxidant capacity.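 Further: colourimetric FRAP kit assay read as absorbance in 96-well plates, values as mM FeSO4 via standard curve, EC1 being sample concentration matching 1.0 mmol/L FeSO4, Trolox positive control.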 The class given is biochemical.
The target in test [4] is T1, COX-2 (Homo sapiens, UniProt P35354).
T1 construct: purchased Beyotime S0168
T1 sequence (P35354 18-604): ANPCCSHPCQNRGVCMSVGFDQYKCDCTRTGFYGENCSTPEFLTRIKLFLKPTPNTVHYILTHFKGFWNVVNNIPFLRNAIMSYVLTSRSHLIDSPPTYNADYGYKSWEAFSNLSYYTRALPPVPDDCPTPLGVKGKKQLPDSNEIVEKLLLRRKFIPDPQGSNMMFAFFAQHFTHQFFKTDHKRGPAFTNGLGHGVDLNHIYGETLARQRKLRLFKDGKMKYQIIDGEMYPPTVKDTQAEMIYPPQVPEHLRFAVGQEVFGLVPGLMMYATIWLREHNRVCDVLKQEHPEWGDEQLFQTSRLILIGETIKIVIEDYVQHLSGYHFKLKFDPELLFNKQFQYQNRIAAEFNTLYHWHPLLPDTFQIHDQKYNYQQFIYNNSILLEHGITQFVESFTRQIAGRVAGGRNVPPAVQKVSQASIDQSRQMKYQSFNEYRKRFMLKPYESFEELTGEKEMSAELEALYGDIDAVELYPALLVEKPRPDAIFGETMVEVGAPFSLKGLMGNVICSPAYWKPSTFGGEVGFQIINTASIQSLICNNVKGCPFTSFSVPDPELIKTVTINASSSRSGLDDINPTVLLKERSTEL
Kind of test: Anti-COX-2 assay (COX-2 Inhibitor Screening Kit). The format is biochemical.

Test [5] is described as follows: Fluorescent AGEs formation in a BSA-fructose/glucose system. The class given is biochemical. The conditions noted are these: mean ± SD, n = 3; read-out: BSA-glycation IC50. In short, it runs like this: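 BSA glycated in vitro with D-glucose and D-fructose while test samples, dissolved in DMSO:water (1:4), were present. Percent inhibition of fluorescent AGE formation calculated from fluorescence corrected for sample-only and BSA-free blanks; triplicate.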

Test [6] in a line: Online UPLC-PDA-MS-ABTS·+ scavenging (postcolumn derivatisation). The following applies: within DOF extract. On the procedure: Online identification of antioxidant components of DOF extract was performed using a UPLC system (Milford, MA, USA) consisting of a Waters photodiode array detector and a Waters postcolumn derivatisation system supplying fresh ABTS solution (UPLC-PDA-QDa-ABTS). […] The detection wavelengths were set at 280 and 734 nm, and the injection volume of the sample was 10 μl.
To detect radical scavengers, the UPLC system was coupled with a Waters pump, which supplied freshly prepared ABTS·+ solution into a reaction coil (15 m, 0.25 mm ID) with a flow rate of 0.2 ml/min at 37°C. Negative peaks were recorded based on a decrease of absorbance at 729 nm after the reaction of individual compounds with the ABTS·+ radical. For preliminary identification of compounds, a Waters Acquity QDa mass detector in negative ionisation mode was connected in series to PDA with the following parameters: electrospray ion source; cone voltage, 15 V; atomiser, N2; and scanning range, 100–800 m/z.

Where [7] appears, read: lower part of sheet (compound series).

Structures are written as SMILES. Several values for one entry are separate records, joined by “and”; a condition that tells them apart may be missing. Identical values can stand only once. A value given as a limit tells only on which side of the number the result lay.

Take `O=c1cc(-c2ccc(O)cc2)oc2c(C3OC(CO)C(O)C(O)C3O)c(O)c(C3OC(CO)C(O)C(O)C3O)c(O)c12` (stereo not shown) [compound 10, Vicenin-2]: the IC50 is over 5000 µM in test [1], 74.41 ± 0.69 µM in test [2] and 258 ± 7.56 µM in test [5]. The “FRAP EC1” value in test [3] (setting [7]) was over 5000 µM. In test [4], the “COX-2 inhibition (in words)” value is “no inhibitory effects”. In addition, 31.25 µM produced 30% inhibition in test [4] (31.25 μM, single replicates). The COX-2 inhibition in test [4] (31.25 μM, single replicates, listed as T7, 31.25 µM) was 20.65% and 19.20%; in test [4] (62.5 μM, single replicates, listed as T7, 62.5 µM), -16.69% and -16.14% and 33.41%; in test [4] (125 μM, single replicates, listed as T7, 125 µM) it was -28.47% and -18.44% and 17.41%; in test [4] (250 μM, single replicates, listed as T7, 250 µM), -29.84% and -23.37% and -7.75%; in test [4] (500 μM, single replicates, listed as T7, 500 µM), -24.98% and -23.56% and -9.18%; in test [4] (1000 μM, single replicates, listed as T7, 1000 µM) it was -59.66% and -32.74% and -11.22%. The COX-2 inhibition in test [4] (2000 μM (2mM), single replicates, listed as T7) is -38.84% and -31.81% and -15.79%. Besides, the “online ABTS radical scavenging (size of negative peaks at 734 nm)” value in test [6] is “strongest ABTS radical scavengers”.

As to `C[C@@H]1O[C@@H](OC[C@H]2O[C@@H](Oc3c(-c4ccc(O)c(O)c4)oc4cc(O)cc(O)c4c3=O)[C@H](O)[C@@H](O)[C@@H]2O)[C@H](O)[C@H](O)[C@H]1O` [compound 24, Rutin], the IC50 in test [1] was 43.3 ± 1.75 µM; in test [2], 33.1 ± 0.37 µM; in test [5], 222 ± 13.5 µM. The “FRAP EC1” value in test [3] (setting [7]) came to 205.0 ± 12.2 µM; in test [3] (mean ± SD, n = 3), 205.0 ± 12.2 µM. In addition, the “COX-2 inhibition (in words)” value in test [4] is listed as “great COX-2 inhibition”. Further, in test [4] (3.125 μM, single replicates), the inhibition at 3.125 µM was found to be 23.1%. For the same compound, the COX-2 inhibition in test [4] (3.125 μM, single replicates, listed as T3, 3.125 µM) was 13.73% and 18.58%; in test [4] (6.25 μM, single replicates, listed as T3, 6.25 µM), 37.16%; in test [4] (12.5 μM, single replicates, listed as T3, 12.5 µM), 68.24% and 51.05% and 71.69%; in test [4] (25 μM, single replicates, listed as T3, 25 µM) it was 72.08% and 76.61%; in test [4] (50 μM, single replicates, listed as T3, 50 µM) it was 77.16% and 78.42%; in test [4] (100 μM, single replicates, listed as T3, 100 µM) it was 79.28% and 81.06%. Further, the COX-2 inhibition in test [4] (200 μM, single replicates, listed as T3, 200 µM) is 81.14% and 83.16%. In test [4] (6.25 μM, single replicates), this compound displayed an inhibition at 6.25 µM of 42.8%. Further, the inhibition at 25 µM in test [4] (25 μM, single replicates) was determined as 78%. This compound returned an inhibition at 50 µM in test [4] (50 μM, single replicates) of 81.2%. In addition, the inhibition at 100 µM in test [4] (100 μM, single replicates) turned out to be 81.5%. The inhibition at 200 µM in test [4] (200 μM, single replicates) came to 84.3%. Besides, the “online ABTS radical scavenging (size of negative peaks at 734 nm)” value in test [6] was “strongest ABTS radical scavengers”.

(Values after paper PMC10064984, “Anti-cyclooxygenase, anti-glycation, and anti-skin aging effect of Dendrobium officinale flowers’ aqueous extract and its phytochemical validation in aging” (Frontiers in Immunology, 2023).)
